How the values were obtained:
[1] = test system: BEAS-2B; assay: Cytotoxicity against human BEAS-2B cells assessed as reduction in cell viability; type: toxicity, cell-based
[2] = Inhibition of MERS 3CL protease expressed in Escherichia coli BL21(DE3) cells using DABCYL-KTSAVLQSGFRKM-EDANS as substrate preincubated for 30 mins followed by substrate addition and measured after 30 mins by FRET assay; design: species or system Middle East respiratory syndrome-related coronavirus
[3] = biological target: T1, Replicase polyprotein 1ab (Severe acute respiratory syndrome coronavirus 2, UniProt P0DTD1); assay: Inhibition of SARS-CoV-2 3CL protease expressed in Escherichia coli BL21(DE3) cells using DABCYL-KTSAVLQSGFRKM-EDANS as substrate preincubated for 30 mins followed by substrate addition and measured after 15 mins by FRET assay
[4] = test system: Middle East respiratory syndrome-related coronavirus; assay: microbe, parasite or virus in culture; settings: Vero C1008, 96 h
[5] = test system: SARS-CoV-2; assay: microbe, parasite or virus in culture; settings: Severe acute respiratory syndrome coronavirus 2, […], Vero C1008, 72 h
[6] = test system: Human coronavirus 229E; assay: microbe, parasite or virus in culture; settings: BEAS-2B
[7] = test system: SARS-CoV-2; assay: microbe, parasite or virus in culture; settings: Severe acute respiratory syndrome coronavirus 2, […], Vero C1008
[8] = biological target: T1, Replicase polyprotein 1ab; assay: Covalent binding affinity to SARS-CoV-2 3CL protease expressed in Escherichia coli BL21(DE3) cells after 30 mins by FRET assay
[9] = biological target: Replicase polyprotein 1ab (Severe acute respiratory syndrome coronavirus 2) (UniProt P0DTD1); settings: dose 40.0 µM, time 30.0 min
[10] = test system: SARS-CoV-2; settings: Severe acute respiratory syndrome coronavirus 2, […], Calu-3, 48 h
[11] = Selectivity index, ratio of CC50 for human BEAS2B cells to EC50 for antiviral activity against HCoV229E infected in BEAS-2B cells; type: toxicity, cell-based; settings: read-out: Ratio CC50/EC50

SMILES	CC50 [1] [µM]	IC50 [2] [nM]	IC50 [3] [µM]	EC50 [4] [µM]	EC50 [5] [µM]	EC50 [6] [µM]	EC50 [7] [µM]	Ki [8] [µM]	ΔTm [9] [°C]	EC50 [10] [µM]	selectivity ratio [11]
CC(C)C[C@H](NC(=O)OCc1ccccc1)C(=O)N[C@@H](C[C@@H]1CCNC1=O)C(O)S(=O)(=O)O (stereo not given in full)	> 100										
CC(C)[C@H](NC(=O)OC(C)(C)C)C(=O)N1C[C@H](OC(C)(C)C)C[C@H]1C(=O)N[C@H](C=O)C[C@@H]1CCNC1=O	48.2	26	0.0025	33.6	3.4	> 48.2	33.4				
CC(C)[C@H](NC(=O)OC(C)(C)C)C(=O)N1C[C@@H]2CCC[C@@H]2[C@H]1C(=O)N[C@H](C=O)C[C@@H]1CCNC1=O	28.4	143	0.005		0.21	0.24	5.3	0.0032	4	0.449	
CO[C@H]1C[C@@H](C(=O)N[C@H](C=O)C[C@@H]2CCNC2=O)N(C(=O)[C@@H](NC(=O)OC(C)(C)C)C(C)C)C1	3.6	0.007	0.00024	0.58	8.7	> 3.6	23.6				
CC(C)[C@H](NC(=O)OC(C)(C)C)C(=O)N1CCC[C@H]1C(=O)N[C@H](C=O)C[C@@H]1CCNC1=O	17.9	0.02	0.00623	4.56	16	> 17.9	22.5				
CC(C)[C@H](NC(=O)OC(C)(C)C)C(=O)N1C[C@@H](C)C[C@H]1C(=O)N[C@H](C=O)C[C@@H]1CCNC1=O		2.33	0.00047		16.9		47.2				
C[C@H](OC(C)(C)C)[C@H](NC(=O)OC(C)(C)C)C(=O)N1CCC[C@H]1C(=O)N[C@H](C=O)C[C@@H]1CCNC1=O		0.022	0.0053		1.86		22.9				
CC(C)C[C@H](NC(=O)[C@@H](NC(=O)OC(C)(C)C)C(C)C)C(=O)N[C@H](C=O)C[C@@H]1CCNC1=O	70.5	0.02	0.0007	1.58	3.6	2.3	40.1				> 30.1
CC(C)[C@H](NC(=O)OC(C)(C)C)C(=O)N1CCCC[C@H]1C(=O)N[C@H](C=O)C[C@@H]1CCNC1=O			3.35		5.83		> 100				

From ChEMBL document CHEMBL5360575, “Broad-spectrum coronavirus 3C-like protease peptidomimetic inhibitors effectively block SARS-CoV-2 replication in cells: Design, synthesis, biological evaluation, and X-ray structure determination” (Eur J Med Chem, 2023)
